Results: PubChem BioAssay (NCI)
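Cultured in 96-well plates, cells were exposed to test compound for 48 hours across five concentrations. TGI is the concentration that stops growth completely.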

Columns and labels:
Test in all cases: NCI anticancer screen, dose series, 48 h
786-0 renal = test system: 786-0 renal
A498 renal = test system: A498 renal
A549 NSCLC = test system: A549 NSCLC
ACHN renal = test system: ACHN renal
BT-549 breast = test system: BT-549 breast
CCRF-CEM leukemia = test system: CCRF-CEM leukemia
COLO 205 colon = test system: COLO 205 colon
DU-145 prostate = test system: DU-145 prostate
HCT-15 colon = test system: HCT-15 colon
HL-60(TB) leukemia = test system: HL-60(TB) leukemia
HOP-62 NSCLC = test system: HOP-62 NSCLC
HOP-92 NSCLC = test system: HOP-92 NSCLC
HT29 colon = test system: HT29 colon
K-562 leukemia = test system: K-562 leukemia
KM12 colon = test system: KM12 colon
M14 melanoma = test system: M14 melanoma
MALME-3M melanoma = test system: MALME-3M melanoma
MCF7 breast = test system: MCF7 breast
MDA-MB-435 = test system: MDA-MB-435
MDA-N = test system: MDA-N
MOLT-4 leukemia = test system: MOLT-4 leukemia
NCI-H226 lung = test system: NCI-H226 lung
NCI-H23 lung = test system: NCI-H23 lung
NCI-H460 lung = test system: NCI-H460 lung
NCI/ADR-RES ovarian = test system: NCI/ADR-RES ovarian
OVCAR-3 ovarian = test system: OVCAR-3 ovarian
OVCAR-5 ovarian = test system: OVCAR-5 ovarian
OVCAR-8 ovarian = test system: OVCAR-8 ovarian
PC-3 prostate = test system: PC-3 prostate
RPMI-8226 leukemia = test system: RPMI-8226 leukemia
RXF 393 renal = test system: RXF 393 renal
SF-268 CNS = test system: SF-268 CNS
SF-295 CNS = test system: SF-295 CNS
SF-539 CNS = test system: SF-539 CNS
SK-MEL-28 melanoma = test system: SK-MEL-28 melanoma
SN12C renal = test system: SN12C renal
SNB-19 CNS = test system: SNB-19 CNS
SR leukemia = test system: SR leukemia
SW-620 colon = test system: SW-620 colon
T-47D breast = test system: T-47D breast
TK-10 renal = test system: TK-10 renal
U251 CNS = test system: U251 CNS
UACC-257 melanoma = test system: UACC-257 melanoma
UO-31 renal = test system: UO-31 renal

Measured: TGI

Cc1cc(C)c(NS(=O)c2cccc(C(F)(F)F)c2)c(C)c1 (centres undefined)
> 100 µM: all assays above
